Reference: patent US8748412B2, “Phenylalanine derivatives and their use as non-peptide GLP-1 receptor modulators” (Argusina Bioscience Inc., priority 2011, dated 2014)

These compounds were tested against T1, human GLP1R (Homo sapiens, UniProt P43220) (assay: Human GLP-1 receptor transfected cell assay (MRE/CRE-luciferase reporter gene, agonist activity)). Details: 6 h; concentration 1 μM; read-out: Activity (agonist), percentage of the activity of the control.
T1 construct: expressed in transfected cells; host or cells: CHO cells (ATCC), transient transfection with pCMV-human GLP1R
T1 sequence (P43220 24-463): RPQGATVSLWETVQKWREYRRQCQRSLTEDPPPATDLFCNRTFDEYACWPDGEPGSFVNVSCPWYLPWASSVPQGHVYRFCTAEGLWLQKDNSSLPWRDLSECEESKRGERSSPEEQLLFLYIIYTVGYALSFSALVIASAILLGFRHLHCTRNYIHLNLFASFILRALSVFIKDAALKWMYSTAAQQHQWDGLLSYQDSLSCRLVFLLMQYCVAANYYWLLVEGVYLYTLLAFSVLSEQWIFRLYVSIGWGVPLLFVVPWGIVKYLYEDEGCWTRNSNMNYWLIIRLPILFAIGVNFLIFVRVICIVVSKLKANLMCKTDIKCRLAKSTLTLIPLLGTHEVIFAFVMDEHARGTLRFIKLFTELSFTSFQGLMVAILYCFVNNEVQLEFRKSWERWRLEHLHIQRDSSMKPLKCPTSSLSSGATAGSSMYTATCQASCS
Format: cell-based
Procedure: The glucagon-like peptide I receptor (GLP1R) is a class B Gs-coupled membrane receptor, an agonist of which activates adenylate cyclase (AC) and elevates intracellular cAMP level. In turn, the high content of secondary messengers can activate the cAMP response element binding protein (CREB), which can translocate into nucleus to activate gene transcription.
A reporter gene based screening assay was established to measure the effect of a compound on GLP1R. In this assay, a compound was incubated with CHO cells transiently transfected with a human GLP1R plasmid and a multiple response element (MRE)/cAMP response element (CRE)-driven luciferase reporter plasmid. Once luciferase was induced by the compound, its specific substrate can be activated to produce light signal for measurement.
Materials used in this assay included: (i) cell line: Chinese hamster ovary (CHO) cells (ATCC); (ii) fetal bovine serum (FBS) (Biochrom Co.); (iii) culture medium: RPMI1640 (Invitrogen Co.) supplemented with 10% FBS; (iv) LIPOFECTAMINE™ 2000 Reagent (Invitrogen Co.); (v) plasmids: pCMV-human GLP1R and pGL3-1905 reporter plasmid; (vi) GLP1 (7-36 amide) peptide (Sigma Co.); and (vii) BRIGHT-GLO™ Luciferase Assay System (Promega Co.).
Instruments used in this assay included: (i) Form a carbon dioxide incubator (Thermo Form a Co.); and (ii) Flexstation 3 (Molecular Device Co.).
Before transfection, CHO cells were plated into a 6-well culture plate at 800,000/2 mL/well, and cultured at 37° C. in 5% CO2 overnight. On the transfection day, cells were transfected with receptor plasmid and reporter plasmid using LIPOFECTAMINE™ 2000 reagent. After 6-hour transfection, cells were digested and seeded into 96-well plates at 20,000/100 μL/well. After 14-16 hour incubation, transfected cells were washed with 100 μL serum-free RPMII 640 medium first, and then added 50 μL of the culture medium. The GLP-1 standard and test compounds were respectively diluted to a series of concentrations, which were then added into the above 96-well culture plate at 50 μL/well. The cells were incubated at 37° C. in 5% CO2 for 6 hrs. The activity of luciferase was detected using BRIGHT-GLO™ Luciferase Analytic System, and the reading was performed with a Flexstation3 plate reader machine.
Work on `Cc1ccc(-c2ccc(C(=O)NC(Cc3ccc(-c4noc(-c5ccc(NC(=O)OC(C)(C)C)cc5)n4)c(F)c3)C(=O)O)o2)cc1F` (stereo not drawn) [Compound 1N] yielded an activation at 1 µM greater than 60%. Work on `Cc1ccc(-c2cccc(C(=O)NC(Cc3ccc(-c4noc(-c5ccc(NC(=O)OC(C)(C)C)cc5)n4)c(F)c3)C(=O)O)c2)cc1` (stereo not drawn) [Compound 1U] yielded an activation at 1 µM greater than 60%.

Same assay, conditions: 6 h; concentration 3 μM; read-out: Activity (agonist), percentage of the activity of the control
`Cc1ccc(-c2ccc(C(=O)N[C@H](Cc3ccc(F)c(-c4noc(-c5ccc(NC(=O)OC(C)(C)C)cc5)n4)c3)C(=O)O)o2)cc1` [Compound 1E] gave an activation at 3 µM of 40 to 60%. `Cc1ccc(-c2ccc(C(=O)NC(Cc3ccc(-c4noc(-c5ccc(NC(=O)OC(C)(C)C)cc5C)n4)c(F)c3)C(=O)O)o2)cc1` (stereo not drawn) [Compound 1R] gave an activation at 3 µM of 20 to 40%.

Same assay, conditions: 6 h; concentration 3.16 μM; read-out: Activity (agonist), percentage of the activity of the control
`CC(C)(C)OC(=O)Nc1ccc(C(=O)NC(C)(Cc2ccc(OC(=O)c3ccc(NC(=O)OC(C)(C)C)cc3)c(F)c2)C(=O)O)cc1` (stereo not drawn) [Compound 1B] showed an activation at 3.16 µM greater than 60%. `CC(C)(C)OC(=O)Nc1ccc(-c2nc(-c3ccc(CC(NC(=O)C4CC4c4ccccc4)C(=O)O)cc3F)no2)cc1` (stereo not drawn) [Compound 1D] showed an activation at 3.16 µM of 20 to 40%. In the case of `Cc1ccc(-c2ccc(C(=O)NC(Cc3ccc(-c4noc(-c5ccc(NC(=O)OC(C)(C)C)cc5)n4)c(F)c3)c3nnn[nH]3)o2)cc1` (stereo not drawn) [Compound 1H], the activation at 3.16 µM is reported as greater than 60%. `CN(C)c1ccc(-c2ccc(C(=O)NC(Cc3ccc(-c4noc(-c5ccc(NC(=O)OC(C)(C)C)cc5)n4)c(F)c3)C(=O)O)o2)cc1` (stereo not drawn) [Compound 1I] showed an activation at 3.16 µM greater than 60%. In the case of `COc1ccc(-c2ccc(C(=O)NC(Cc3ccc(-c4noc(-c5ccc(NC(=O)OC(C)(C)C)cc5)n4)c(F)c3)C(=O)O)o2)cc1` (stereo not drawn) [Compound 1J], the activation at 3.16 µM is reported as greater than 60%. Work on `CC(C)(C)OC(=O)Nc1ccc(-c2nc(-c3ccc(CC(NC(=O)c4ccc(-c5ccc(Cl)cc5Cl)o4)C(=O)O)cc3F)no2)cc1` (stereo not drawn) [Compound 1L] yielded an activation at 3.16 µM greater than 60%. Work on `CC(C)c1ccc(-c2ccc(C(=O)NC(Cc3ccc(-c4noc(-c5ccc(NC(=O)OC(C)(C)C)cc5)n4)c(F)c3)C(=O)O)o2)cc1` (stereo not drawn) [Compound 1O] yielded an activation at 3.16 µM of 20 to 40%. Work on `Cc1ccc(-c2ccc(C(=O)NC(Cc3ccc(-c4noc(-c5ccc(NC(=O)OC(C)(C)C)cc5C(F)(F)F)n4)c(F)c3)C(=O)O)o2)cc1` (stereo not drawn) [Compound 1P] yielded an activation at 3.16 µM greater than 60%. `Cc1ccc(-c2ccc(C(=O)NC(Cc3ccc(-c4noc(-c5ccc(NC(=O)OC(C)(C)C)cc5)n4)c(F)c3)C(=O)O)o2)cc1Cl` (stereo not drawn) [Compound 1Q] was tested, and the activation at 3.16 µM was greater than 60%.

Same assay, conditions: 6 h; concentration 5 μM; read-out: Activity (agonist), percentage of the activity of the control
`Cc1ccc(-c2ccc(C(=O)NC(Cc3ccc(OC(=O)c4ccc(NC(=O)OC(C)(C)C)cc4)c(F)c3)C(=O)O)o2)cc1` (stereo not drawn) [Compound 1A] showed an activation at 5 µM greater than 60%. `CC(C)(C)OC(=O)Nc1ccc(-c2nc(-c3ccc(CC(NC(=O)c4ccnc(Cl)c4)C(=O)O)cc3F)no2)cc1` (stereo not drawn) [Compound 1F] showed an activation at 5 µM greater than 60%.

Same assay, conditions: 6 h; concentration 10 μM; read-out: Activity (agonist), percentage of the activity of the control
`CC(C)(C)OC(=O)Nc1ccc(-c2nc(-c3ccc(CC(NC(=O)/C=C/c4ccc(F)cc4)C(=O)O)cc3F)no2)cc1` (stereo not drawn) [Compound 1C] was tested, and the activation at 10 µM was greater than 60%. `Cc1ccc(-c2ccc(C(=O)NC(Cc3ccc(-c4noc(-c5ccc(NC(=O)OC(C)(C)C)cc5)n4)c(F)c3)C(=O)O)o2)cc1` (stereo not drawn) [Compound 1G, 3-{4-[5-(4-tert-Butoxycarbonylamino-phenyl)-[1,2,4]oxadiazol-3-yl]-3-fluoro-phenyl}-2-[(5-p-tolyl-furan-2-carbonyl)-amino]-propionic acid] was tested, and the activation at 10 µM was greater than 60%. Compound `Cc1cccc(-c2ccc(C(=O)NC(Cc3ccc(-c4noc(-c5ccc(NC(=O)OC(C)(C)C)cc5)n4)c(F)c3)C(=O)O)o2)c1` (stereo not drawn) [Compound 1K] has an activation at 10 µM greater than 60%. `Cc1cc(-c2ccc(C(=O)NC(Cc3ccc(-c4noc(-c5ccc(NC(=O)OC(C)(C)C)cc5)n4)c(F)c3)C(=O)O)o2)ccc1F` (stereo not drawn) [Compound 1M] was tested, and the activation at 10 µM was greater than 60%. `CC(C)(C)OC(=O)Nc1ccc(-c2nc(-c3ccc(CC(NC(=O)c4cccc(-c5ccc(Cl)cc5)c4F)C(=O)O)cc3F)no2)cc1` (stereo not drawn) [Compound 1S] was tested, and the activation at 10 µM was 40 to 60%. For `CC(C)(C)OC(=O)Nc1ccc(-c2nc(-c3ccc(CC(NC(=O)c4cccc(-c5ccc(F)cc5)n4)C(=O)O)cc3F)no2)cc1` (stereo not drawn) [Compound 1T], the activation at 10 µM was 40 to 60%.
